Test results as given in patent US7476670B2, “Purine derivatives, method for preparing, pharmaceutical compositions and novel use” (Aventis Pharma S.A., priority 2003, dated 2009).
Counter-ions that a name gives are not always drawn. Like-named read-outs stand apart in the source and are kept apart here.

Columns and labels:
Type in all cases: biochemical
[1] = molecular target: CaCiv1 (Candida albicans, UniProt A0A1D8PH53); experiment: Assay for inhibition of CIV-CDK (CIV1) activity
Description: 1) Assay for Inhibition of CIV-CDK (CIV1) Activity
a) Preparation of the Reagents

[2] = molecular target: PLK1 (Homo sapiens, UniProt P53350); experiment: Assay for inhibition of PLK1 activity; conditions: [33P]ATP; read-out: IC50s expressed as micromolar
Description: (§1) The inhibition of the kinase activity is determined by measuring the phosphorylation of its substrate peptide.
The assay is carried out in a final volume of 40 μl; all the reagents are prepared in a buffer: • 50 mM HEPES pH 7.5 • 0.03% triton X100 • 10 mM MgCl2 • 5% Glycerol • 1 mM DTT 10 μl of the 10-times concentrated inhibitor are added to 5 μl of enzyme (75 ng final concentration), and 5 μl of peptide (1 μM final concentration), then 2.5 μl of incubation buffer containing 40 μM ATP and 2.5 μl of radiolabeled ATP, [^33P]ATP (500 nCi), are added. After incubation for 15 minutes at ambient temperature, 10 μl of incubation buffer containing 192 nM of substrate. […] Reference method for broth dilution antifungal susceptibility testing of yeasts. Approved Standard M27-A. NCCLS, Villanova, Pa.); the minimum concentration with which a visible decrease is observed in the cloudiness of the cell growth (at least 80% compared to a control without product) is the Minimum Inhibitory Concentration (MIC) of the antifungal agent with respect to the strain tested.

[3] = molecular target: JNK3 kinase (Homo sapiens, UniProt P53779); experiment: Assay for inhibition of JNK3 activity; conditions: fluorescence polarization, ATP 6 μM; read-out: IC50s expressed as micromolar
Description: The inhibition of the kinase activity is determined by fluorescence polarization, the JNK3 kinase phosphorylates a peptide detected by adding an anti-phosphopeptide antibody coupled to a fluorescent label.
The assay is carried out in a final volume of 30 μl; all the reagents are prepared in a buffer: • 50 mM HEPES pH 7.5 • 0.03% triton X100 • 10 mM MgCl2 • 5% Glycerol • 1 mM DTT 10 μl of the 10-times concentrated inhibitor are added to 5 μl of enzyme (40 ng final concentration), and 5 μl of incubation buffer containing 100 ng of substrate and 10 μl of ATP (6 μM final concentration) are added.

[4] = molecular target: GSK3beta (Homo sapiens, UniProt P49841); experiment: Assay for inhibition of GSK3beta activity; conditions: [33P]ATP; read-out: IC50s expressed as micromolar
Description: as §1
The assay is carried out in a final volume of 40 μl; all the reagents are prepared in a buffer: • 50 mM HEPES pH 7.5 • 0.03% triton X100 • 10 mM MgCl2 • 5% Glycerol • 1 mM DTT 10 μl of the 10-times concentrated inhibitor are added to 5 μl of enzyme (20 ng final concentration), and 5 μl of peptide (1 μM final concentration) then 2.5 μof incubation buffer containing 16 μM ATP and 2.5 μl of radiolabeled ATP, [^33P]ATP (50 nCi) are added. After incubation for 15 minutes at ambient temperature, 10 μl of incubation buffer containing 1 μM of substrate.

[5] = system: Abl kinase; experiment: Assay for inhibition of Abl activity; conditions: fluorescence polarization
Description: The inhibition of the kinase activity is determined by fluorescence polarization, the Abl kinase phosphorylates a peptide detected by adding an anti-phosphopeptide antibody coupled to a fluorescent label.
The assay is carried out in a final volume of 50 μl; all the reagents are prepared in a buffer: • 20 mM Hepes/NaOH pH 7.5 • 5 mM MgCl2 • 100 μM Na2VO4 • 1 mM DTT • 100 μM EDTA/NaOH • 0.01% Brij35 5 μl of the 10-times concentrated inhibitor are added to 25 μl of enzyme (1000 U/ml final concentration), (Calbiochem ref 102555). After incubation for 5 minutes at ambient temperature, 10 μL of PolyGT (400 ng/ml final concentration) and 10 μL of ATP (5 μM final concentration) are added. The detection is carried out after incubation for 15 minutes at 30° C. • Results obtained expressed as percentage inhibition at 20 μM • Example 24 100% • Example 2 100% • Example 32 100% 6) Assay for Inhibition of ZAP Kinase Activity

[6] = molecular target: Cyclin Dependent kinase 2 (CDK2) (Homo sapiens, UniProt P24941); experiment: Assay for inhibition of CDK2 activity; conditions: [33P]ATP, read-out: percentage inhibition at 20 μM
Description: The inhibition of the kinase activity of Cyclin Dependent kinase 2 (CDK2) is determined by measuring the phosphorylation of its substrate peptide.
The assay is carried out in a final volume of 50 μl.
The incubation buffer as follows:
• 50 mM Hepes/NaOH pH 7.5 • 10 mM MgCl2 • 1 mM DTT 5 μl of the 10-times concentrated inhibitor are added to 25 μl of incubation buffer containing 0.8 U/μL final concentration of the enzyme; 10 μL of incubation buffer containing 0.0025 mg/ml of peptide substrate are then added and, finally, 10 μL of incubation buffer containing 2 mM ATP and radiolabeled ATP, [^33P]ATP (0.25 μCi), are added. The reaction is stopped after incubation for 10 minutes at 37° C. • Results obtained expressed as percentage inhibition at 20 μM • Example 2 97% • Example 27 97% • Example 30 99% 4) Assay for Inhibition of CDK1 Activity

[7] = molecular target: T1, SRC kinase (Homo sapiens, UniProt P12931); experiment: Assay for inhibition of SRC kinase activity; conditions: fluorescence polarization, read-out: percentage inhibition at 20 μM
T1 construct: purchased Upstate Biotechnology 14-117
Description: 2) Assay for Inhibition of SRC Kinase Activity
The inhibition is determined by fluorescence polarization, the […] kinase phosphorylates a peptide detected by adding an anti-phosphopeptide antibody coupled to a fluorescent label.
The assay is carried out in a final volume of 50 μl; all the reagents are prepared in a buffer: • 25 mM HEPES/NaOH pH 7.6 • 5 mM MgCl2 • 2 mM MnCl2 • 50 μM Na2VO4 5 μl of the 10-times concentrated inhibitor are added to 25 μl of enzyme (12 U/ml final concentration), (Upstate Biotechnology ref 14-117). After incubation for 5 minutes at ambient temperature, 10 μl of PolyGluTyr 4/1 (150 ng/ml final concentration) and 10 μl of ATP (5 μM final concentration) are added. The detection is carried out after incubation for 20 minutes at ambient temperature. • Results obtained expressed as percentage inhibition at 20 μM • Example 8 98% • Example 15 99% • Example 20 99% • Example 24 99% • Example 27 95% • Example 30 99% • Example 32 100% • Example 38 95% 3) Assay for Inhibition of CDK2 Activity

[8] = molecular target: T2, ZAP kinase (Homo sapiens, UniProt P43403); experiment: Assay for inhibition of ZAP kinase activity; conditions: fluorescence polarization, read-out: percentage inhibition at 20 μM
T2 construct: purchased Panvera P2782
T2 sequence (P43403 1-619): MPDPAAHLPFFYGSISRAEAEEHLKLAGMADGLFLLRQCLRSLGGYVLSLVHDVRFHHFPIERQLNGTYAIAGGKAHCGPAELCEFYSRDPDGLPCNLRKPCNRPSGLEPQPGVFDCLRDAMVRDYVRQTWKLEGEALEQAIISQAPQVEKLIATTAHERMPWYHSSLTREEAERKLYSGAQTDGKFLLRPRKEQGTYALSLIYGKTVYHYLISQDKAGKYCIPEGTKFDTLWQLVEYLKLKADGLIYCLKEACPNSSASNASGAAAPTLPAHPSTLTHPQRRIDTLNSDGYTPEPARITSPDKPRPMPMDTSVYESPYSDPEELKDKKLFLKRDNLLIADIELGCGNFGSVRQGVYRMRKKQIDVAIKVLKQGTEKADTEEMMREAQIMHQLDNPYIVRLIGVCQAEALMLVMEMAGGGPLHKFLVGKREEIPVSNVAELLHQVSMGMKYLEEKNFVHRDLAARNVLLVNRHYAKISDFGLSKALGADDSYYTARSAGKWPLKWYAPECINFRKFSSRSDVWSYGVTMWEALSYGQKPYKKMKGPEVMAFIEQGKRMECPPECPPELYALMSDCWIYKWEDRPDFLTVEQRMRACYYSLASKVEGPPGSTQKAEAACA
Description: The inhibition of the kinase activity is determined by fluorescence polarization, the ZAP kinase phosphorylates a peptide detected by adding an anti-phosphopeptide antibody coupled to a fluorescent label.
The assay is carried out in a final volume of 50 μl; all the reagents are prepared in a buffer: • 20 mM Tris/HCl pH 7.7 • 7 mM MnCl2 • 50 μM Na2VO4 5 μl of the 10-times concentrated inhibitor are added to 25 μl of enzyme (0.7 μg/ml final concentration) (Panvera ref P2782). After incubation for 5 minutes at ambient temperature, 10 μl of PolyGT (300 ng/ml final concentration) and 10 μl of ATP (0.25 μM final concentration) are added. The detection is carried out after incubation for 15 minutes at ambient temperature. • Results obtained expressed as percentage inhibition at 20 μM • Example 8 98% • Example 20 95% • Example 24 96% 7) Assay for Inhibition of Casein Kinase II Activity

[9] = CaCiv1 with Cdk2 substrate, [33P]ATP, 30 min ambient temperature, read-out: IC50 as micromolar

Sequence of CaCiv1 (A0A1D8PH53 entry or part of it): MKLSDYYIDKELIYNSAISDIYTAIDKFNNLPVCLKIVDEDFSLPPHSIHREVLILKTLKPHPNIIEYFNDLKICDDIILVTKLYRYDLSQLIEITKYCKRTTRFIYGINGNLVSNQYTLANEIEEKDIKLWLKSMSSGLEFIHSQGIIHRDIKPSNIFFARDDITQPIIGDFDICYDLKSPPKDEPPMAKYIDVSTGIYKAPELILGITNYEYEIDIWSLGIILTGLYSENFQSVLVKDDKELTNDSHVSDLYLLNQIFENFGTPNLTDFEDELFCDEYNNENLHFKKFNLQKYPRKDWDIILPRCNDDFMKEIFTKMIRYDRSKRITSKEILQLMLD
Sequence of GSK3beta (P49841 whole entry, species assumed): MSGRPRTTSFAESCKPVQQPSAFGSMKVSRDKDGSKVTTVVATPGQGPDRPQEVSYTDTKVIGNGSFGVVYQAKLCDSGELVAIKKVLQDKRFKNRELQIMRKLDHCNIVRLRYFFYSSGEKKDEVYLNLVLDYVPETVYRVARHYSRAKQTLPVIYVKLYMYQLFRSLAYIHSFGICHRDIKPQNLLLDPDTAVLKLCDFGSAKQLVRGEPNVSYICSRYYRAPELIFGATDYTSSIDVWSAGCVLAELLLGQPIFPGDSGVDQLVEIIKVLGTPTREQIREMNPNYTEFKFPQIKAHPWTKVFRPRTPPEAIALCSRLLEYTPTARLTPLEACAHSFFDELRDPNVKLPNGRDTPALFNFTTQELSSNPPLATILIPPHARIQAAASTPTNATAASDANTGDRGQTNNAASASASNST
Sequence of JNK3 kinase (P53779 whole entry): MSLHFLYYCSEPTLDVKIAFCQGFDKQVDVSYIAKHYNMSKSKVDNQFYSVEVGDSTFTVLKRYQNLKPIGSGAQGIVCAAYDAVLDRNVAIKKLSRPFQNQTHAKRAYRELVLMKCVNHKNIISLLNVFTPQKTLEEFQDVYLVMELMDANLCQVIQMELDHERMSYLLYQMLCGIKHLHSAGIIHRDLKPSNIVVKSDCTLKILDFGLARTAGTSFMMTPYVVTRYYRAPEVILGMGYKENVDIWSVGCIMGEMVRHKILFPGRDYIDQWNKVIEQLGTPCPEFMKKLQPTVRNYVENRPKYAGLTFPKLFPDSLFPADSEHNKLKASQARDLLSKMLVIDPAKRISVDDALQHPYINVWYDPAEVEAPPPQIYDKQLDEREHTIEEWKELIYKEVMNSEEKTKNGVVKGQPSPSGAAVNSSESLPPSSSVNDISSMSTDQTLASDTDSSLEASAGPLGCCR
Sequence of PLK1 (P53350 whole entry, species assumed): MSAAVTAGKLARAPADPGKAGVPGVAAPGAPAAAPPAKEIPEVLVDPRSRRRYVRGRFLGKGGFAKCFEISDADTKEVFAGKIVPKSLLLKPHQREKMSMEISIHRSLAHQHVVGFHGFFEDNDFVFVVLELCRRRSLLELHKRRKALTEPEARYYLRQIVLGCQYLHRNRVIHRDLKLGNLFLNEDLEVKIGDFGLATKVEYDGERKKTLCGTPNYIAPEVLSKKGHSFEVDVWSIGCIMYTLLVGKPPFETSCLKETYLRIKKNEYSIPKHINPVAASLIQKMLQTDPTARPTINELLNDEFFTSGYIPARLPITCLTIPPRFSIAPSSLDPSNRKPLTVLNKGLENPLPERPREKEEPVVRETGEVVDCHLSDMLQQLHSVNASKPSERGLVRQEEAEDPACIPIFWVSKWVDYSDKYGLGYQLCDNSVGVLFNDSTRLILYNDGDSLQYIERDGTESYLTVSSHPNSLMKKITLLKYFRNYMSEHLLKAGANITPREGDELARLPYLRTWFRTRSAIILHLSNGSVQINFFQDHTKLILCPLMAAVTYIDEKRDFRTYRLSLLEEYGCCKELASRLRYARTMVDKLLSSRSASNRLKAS
T1 sequence (P12931 whole entry): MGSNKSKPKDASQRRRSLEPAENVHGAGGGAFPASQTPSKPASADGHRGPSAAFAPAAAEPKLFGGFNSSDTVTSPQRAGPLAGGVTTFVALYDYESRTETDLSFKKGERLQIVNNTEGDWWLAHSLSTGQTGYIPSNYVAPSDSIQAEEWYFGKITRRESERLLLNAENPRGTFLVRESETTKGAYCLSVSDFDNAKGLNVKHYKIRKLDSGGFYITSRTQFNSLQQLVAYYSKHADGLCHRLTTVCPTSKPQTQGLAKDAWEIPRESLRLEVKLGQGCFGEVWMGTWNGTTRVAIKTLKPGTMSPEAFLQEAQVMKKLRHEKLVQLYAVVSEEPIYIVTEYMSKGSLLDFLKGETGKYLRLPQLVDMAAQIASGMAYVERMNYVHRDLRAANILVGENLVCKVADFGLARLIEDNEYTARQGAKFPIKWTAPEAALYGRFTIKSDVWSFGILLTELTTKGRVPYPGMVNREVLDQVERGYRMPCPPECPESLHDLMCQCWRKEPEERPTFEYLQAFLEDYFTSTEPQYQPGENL

IC50 [1, 9] [µM]	Molecule	IC50 [2] [µM]	IC50 [3] [µM]	IC50 [4] [µM]	percentage inhibition at 20 μM [5] [%]	further results
	CC1Cc2ccccc2N1c1nc(N[C@H]2CC[C@H](N)CC2)nc2[nH]cnc12 (stereo partly drawn) [Example 26, dihydrochloride]		0.31	1.3		
3.9	OCC(CO)Nc1nc(-n2cnc3ccccc32)c2nc[nH]c2n1 [Example 18, 2-[[6-(1H-benzimidazol-1-yl)-9H-purin-2-yl]amino]-1,3-propanediol]	0.16				
	Cl.Cl.N[C@H]1CC[C@H](Nc2nc(-n3cnc4ccccc43)c3nc[nH]c3n2)CC1 [Example 2, Trans-N-[6-(1H-benzimidazol-1-yl)-9H-purin-2-yl]-1,4-cyclohexanediamine dihydrochloride]			0.6	100	IC50 [1]: 0.5 µM; inhibition at 20 µM [6]: 97%
0.39	O[C@H]1CC[C@H](Nc2nc(-n3cnc4ccccc43)c3nc[nH]c3n2)CC1 [Example 24, Trans-4-[[6-(1H-benzimidazol-1-yl)-9H-purin-2-yl]amino]cyclohexanol]				100	inhibition at 20 µM [7]: 99%; inhibition at 20 µM [8]: 96%

Molecule	IC50 [1, 9] [µM]	IC50 [2] [µM]	IC50 [3] [µM]	IC50 [4] [µM]	percentage inhibition at 20 μM [5] [%]	further results
Trans-N-[6-(5,6-dichloro-2,3-dihydro-1H-indol-1-yl)-9H-purin-2-yl]-1,4-cyclohexanediamine dihydrochloride [Example 1]	0.8	0.21	0.29			
